In patent publication US20110166149A1, “PTERIDINE DERIVATIVES FOR TREATING RESPIRATORY DISEASE” (TARGEGEN INC., priority 2008, published 2011):
Where two headings read alike, the source gives them in different places. Marks after values point to notes of the source that are not given here.

Experiment: Inhalation exposure: Compound A concentration in lung, plasma and BALF (Example 2)
Format: in vivo, BALB/c mice
Conditions: for concentration at 2 h / concentration at 4 h / concentration at 8 h / concentration at 12 h / concentration at 24 h / concentration at 0.083 h / concentration at 0.25 h / concentration at 0.5 h / concentration at 1 h: male, BALB/c, mouse, lung, inhaled, read-out: Compound A concentration Lung; for concentration at 2 h / concentration at 4 h / concentration at 8 h / concentration at 12 h / concentration at 24 h / concentration at 0.083 h / concentration at 0.25 h / concentration at 0.5 h / concentration at 1 h / Compound A concentration Plasma: mice, 30 min inhalation
Procedure: A series of compositions for pulmonary delivery were prepared by making a 20% suspension of compound A in a 5% tyloxapol solution in water. Particle size reduction was achieved using a colloid mill (magicLAB®, MK module, for 6 hours @ 12,000 rpm, while maintaining a temperature below 50° C.). Samples at 4% w/v compound A were prepared by dilution with DI water.
Low (0.02 mg/L), mid (0.07 mg/L), and high (0.20 mg/L) target aerosol concentrations 0.3% Compound A/0.075% tyloxapol, 0.6% Compound A/0.15% tyloxapol, and 1.5% Compound A/0.375% tyloxapol suspensions were used. These low, mid, and high target formulations were prepared as follows: […]
4% compound A and 1% tyloxapol were removed from refrigeration and approximately 2.25, 4.5, and 12 mL were transferred into clean 50 mL graduated plastic tubes, labeled 0.3% A/0.075% tyloxapol, 0.6% A/0.15% tyloxapol, and 1.5% A/0.375% tyloxapol suspensions and allowed to warm to room temperature. Each was diluted to 20 mL with ultra pure water and vortexed until completely mixed. Each formulation was made the morning of exposure to alleviate any storing/stability issues.
Eighty-seven (87) male BALB/c mice (8 weeks of age on arrival and 18.6-24.6 g on exposure day) were purchased from Charles River Laboratories (Raleigh, N.C.). The three animals with the lowest body weights and the three with the highest body weights were excluded from the study on the day of randomization. The remaining eighty-one (81) animals were assigned to the study. Temperatures and relative humidity (RH) in animal housing areas were within the target range specified in the protocol.
Animals were exposed to one of three concentrations of Compound A aerosols for a target of 30 min.
The actual concentrations of test article in the exposure atmospheres were determined by chemical analysis of timed filter samples collected directly from a nose-only exposure port during exposure. In addition, one impactor sample was obtained to verify particle size distribution (PSD), which is characterized by mass median aerodynamic diameter (MMAD) and geometric standard deviation (GSD). The filters and impactor stages were analyzed chemically by LRRI and are described below.

[1] = nominal aerosol 0.02 mg/L, 12 h
[2] = nominal aerosol 0.02 mg/L, 24 h
[3] = nominal aerosol 0.07 mg/L, 0.083 h
[4] = nominal aerosol 0.07 mg/L, 0.25 h
[5] = nominal aerosol 0.07 mg/L, 0.5 h
[6] = nominal aerosol 0.07 mg/L, 12 h
[7] = nominal aerosol 0.07 mg/L, 24 h
[8] = nominal aerosol 0.2 mg/L, 0.083 h
[9] = nominal aerosol 0.2 mg/L, 0.25 h
[10] = nominal aerosol 0.2 mg/L, 0.5 h
[11] = mouse lung, aerosol conc. 0.02 mg/L
[12] = mouse lung, aerosol conc. 0.07 mg/L
[13] = mouse lung, aerosol conc. 0.2 mg/L

**Q.** For `Nc1nc(N)c2nc(-c3cccc(O)c3)c(-c3cccc(O)c3)nc2n1` [Compound A, 6,7-bis(3-hydroxyphenyl)-pteridine-2,4-diamine], which concentration at 2 h (nominal aerosol 0.02 mg/L, 2 h) is on record?
**A.** 9550 ± 840 ng/g

**Q.** What about the concentration at 4 h (nominal aerosol 0.02 mg/L, 4 h) of the same compound?
**A.** 10500 ± 3250 ng/g

**Q.** What about the concentration at 8 h (nominal aerosol 0.02 mg/L, 8 h) of the same compound?
**A.** 5660 ± 3390 ng/g

**Q.** What about the concentration at 12 h [1] of the same compound?
**A.** 8670 ± 2310 ng/g

**Q.** And the concentration at 24 h [2]?
**A.** 3390 ± 2540 ng/g

**Q.** And the concentration at 0.083 h [3]?
**A.** 20600 ± 10100 ng/g

**Q.** And the concentration at 0.25 h [4]?
**A.** 16500 ± 2250 ng/g

**Q.** What about the concentration at 0.5 h [5] of the same compound?
**A.** 16600 ± 600 ng/g

**Q.** What about the concentration at 1 h (nominal aerosol 0.07 mg/L, 1 h) of the same compound?
**A.** 17200 ± 2430 ng/g

**Q.** What about the concentration at 2 h (nominal aerosol 0.07 mg/L, 2 h) of the same compound?
**A.** 22700 ± 5090 ng/g

**Q.** And the concentration at 4 h (nominal aerosol 0.07 mg/L, 4 h)?
**A.** 17000 ± 1620 ng/g

**Q.** What about the concentration at 8 h (nominal aerosol 0.07 mg/L, 8 h) of the same compound?
**A.** 15900 ± 3310 ng/g

**Q.** And the concentration at 12 h [6]?
**A.** 16800 ± 12500 ng/g

**Q.** And the concentration at 24 h [7]?
**A.** 10800 ± 660 ng/g

**Q.** And the concentration at 0.083 h [8]?
**A.** 41000 ± 10300 ng/g

**Q.** What about the concentration at 0.25 h [9] of the same compound?
**A.** 39200 ± 12300 ng/g

**Q.** And the concentration at 0.5 h [10]?
**A.** 67200 ± 39100 ng/g

**Q.** And the concentration at 1 h (nominal aerosol 0.2 mg/L, 1 h)?
**A.** 37700 ± 8070 ng/g

**Q.** And the concentration at 2 h (nominal aerosol 0.2 mg/L, 2 h)?
**A.** 49300 ± 15400 ng/g

**Q.** What about the concentration at 4 h (nominal aerosol 0.2 mg/L, 4 h) of the same compound?
**A.** 44600 ± 2400 ng/g

**Q.** And the concentration at 8 h (nominal aerosol 0.2 mg/L, 8 h)?
**A.** 44000 ± 12000 ng/g

**Q.** What about the concentration at 12 h (nominal aerosol 0.2 mg/L, 12 h) of the same compound?
**A.** 40800 ± 6290 ng/g

**Q.** And the concentration at 24 h (nominal aerosol 0.2 mg/L, 24 h)?
**A.** 26800 ± 2630 ng/g

**Q.** And the “Compound A concentration Plasma” value (nominal aerosol 0.02 mg/L, 0.083 h)?
**A.** 2.16 (⅔) ng/mL

**Q.** What about the “Compound A concentration Plasma” value (nominal aerosol 0.02 mg/L, 0.25 h) of the same compound?
**A.** <LLOQ

**Q.** What about the “Compound A concentration Plasma” value (nominal aerosol 0.02 mg/L, 0.5 h) of the same compound?
**A.** 1.98 (⅔) ng/mL

**Q.** And the “Compound A concentration Plasma” value (nominal aerosol 0.02 mg/L, 1 h)?
**A.** 1.19 (⅓) ng/mL

**Q.** And the “Compound A concentration Plasma” value (nominal aerosol 0.02 mg/L, 2 h)?
**A.** <LLOQ

**Q.** And the “Compound A concentration Plasma” value (nominal aerosol 0.02 mg/L, 4 h)?
**A.** <LLOQ

**Q.** And the “Compound A concentration Plasma” value (nominal aerosol 0.02 mg/L, 8 h)?
**A.** <LLOQ

**Q.** And the “Compound A concentration Plasma” value [1]?
**A.** <LLOQ

**Q.** And the “Compound A concentration Plasma” value [2]?
**A.** <LLOQ

**Q.** And the “Compound A concentration Plasma” value [3]?
**A.** 5.43 (⅓) ng/mL

**Q.** And the “Compound A concentration Plasma” value [4]?
**A.** 1.03 (⅓) ng/mL

**Q.** What about the “Compound A concentration Plasma” value [5] of the same compound?
**A.** 2.45 (⅓) ng/mL

**Q.** What about the “Compound A concentration Plasma” value (nominal aerosol 0.07 mg/L, 1 h) of the same compound?
**A.** <LLOQ

**Q.** What about the “Compound A concentration Plasma” value (nominal aerosol 0.07 mg/L, 2 h) of the same compound?
**A.** <LLOQ

**Q.** And the “Compound A concentration Plasma” value (nominal aerosol 0.07 mg/L, 4 h)?
**A.** <LLOQ

**Q.** What about the “Compound A concentration Plasma” value (nominal aerosol 0.07 mg/L, 8 h) of the same compound?
**A.** <LLOQ

**Q.** What about the “Compound A concentration Plasma” value [6] of the same compound?
**A.** 2.05 (⅓) ng/mL

**Q.** And the “Compound A concentration Plasma” value [7]?
**A.** <LLOQ

**Q.** And the “Compound A concentration Plasma” value [8]?
**A.** 1.34 (⅔) ng/mL

**Q.** And the “Compound A concentration Plasma” value [9]?
**A.** 1.43 (⅓) ng/mL

**Q.** And the “Compound A concentration Plasma” value [10]?
**A.** 1.15 (⅓) ng/mL

**Q.** What about the “Compound A concentration Plasma” value (nominal aerosol 0.2 mg/L, 1 h) of the same compound?
**A.** 1.62 (⅔) ng/mL

**Q.** What about the “Compound A concentration Plasma” value (nominal aerosol 0.2 mg/L, 2 h) of the same compound?
**A.** 1.21 (⅓) ng/mL

**Q.** What about the “Compound A concentration Plasma” value (nominal aerosol 0.2 mg/L, 4 h) of the same compound?
**A.** 1.21 (⅔) ng/mL

**Q.** What about the “Compound A concentration Plasma” value (nominal aerosol 0.2 mg/L, 8 h) of the same compound?
**A.** 2.19 (⅓) ng/mL

**Q.** What about the “Compound A concentration Plasma” value (nominal aerosol 0.2 mg/L, 12 h) of the same compound?
**A.** 2.08 (⅔) ng/mL

**Q.** And the “Compound A concentration Plasma” value (nominal aerosol 0.2 mg/L, 24 h)?
**A.** <LLOQ

**Q.** What about the Thalf (mouse BALF, aerosol conc. 0.02 mg/L) of the same compound?
**A.** 39.8 h

**Q.** And the Thalf (mouse BALF, aerosol conc. 0.07 mg/L)?
**A.** 16.7 h

**Q.** What about the Thalf (mouse BALF, aerosol conc. 0.2 mg/L) of the same compound?
**A.** 17.0 h

**Q.** And the “AUC(0-24)” value [11]?
**A.** 176 µg·h/g

**Q.** And the AUCinf [11]?
**A.** 247 µg·h/g

**Q.** What about the Thalf (mouse lung, aerosol conc. 0.02 mg/L, Regression Coefficient is less than 0.9) of the same compound?
**A.** 14.5^# hrs

**Q.** And the “AUC(0-24)” value [12]?
**A.** 373 µg·h/g

**Q.** What about the AUCinf [12] of the same compound?
**A.** 757 µg·h/g

**Q.** What about the Thalf (mouse lung, aerosol conc. 0.07 mg/L, Regression Coefficient is less than 0.9) of the same compound?
**A.** 24.6^# hrs

**Q.** And the “AUC(0-24)” value [13]?
**A.** 938 µg·h/g

**Q.** What about the AUCinf [13] of the same compound?
**A.** 1777 µg·h/g

**Q.** What about the Thalf [13] of the same compound?
**A.** 21.7 h
